The source made the active and inactive calls. The calls are words filed in the database; no cut-off is given here.

Experiment [1] relates to HeLa. As to the kind of experiment: Induction of apoptosis in human HeLa cells assessed as increase in cellular degeneration at >100 uM after 24 hrs by DAPI-staining-based microscopic analysis. It is filed as functional, cell-based.
For experiment [2], the target named is T1, GTP-binding protein Rheb (Homo sapiens, UniProt Q15382). As to the kind of experiment: Binding affinity to full-length Rheb (unknown origin) by NMR spectroscopic analysis.
In the next experiment the target is GTPase KRas (Homo sapiens, UniProt P01116). As to the kind of experiment: Binding affinity to human K-RAS by NMR analysis.
Experiment [3] has as its target T1, GTP-binding protein Rheb. As to the kind of experiment: Inhibition of RHEB in human HeLa cells assessed as decrease in phospho-S6 protein level at 100 uM after 4 hrs by Western blotting analysis. The format is cell-based. On the technique in general: A western blot detects proteins with antibodies after separation by electrophoresis.
Experiment [4] relates to HeLa. As to the kind of experiment: Induction of apoptosis in human HeLa cells assessed as increase in cellular degeneration at 25 to 250 uM after 4 hrs by MTT assay. The format is functional, cell-based. In general terms: Tetrazolium assays rely on reduction of a dye to a coloured formazan, in cell work by metabolically active cells.

T1 sequence (Q15382 whole entry): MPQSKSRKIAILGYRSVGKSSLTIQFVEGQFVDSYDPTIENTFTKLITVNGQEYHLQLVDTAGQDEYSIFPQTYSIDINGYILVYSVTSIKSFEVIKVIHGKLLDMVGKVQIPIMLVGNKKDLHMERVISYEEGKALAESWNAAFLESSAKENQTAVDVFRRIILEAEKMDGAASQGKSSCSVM

As for `CC(C)(c1ccc(O)cc1)c1ccc(O)cc1` [BISPHENOL A], the result with HeLa [1] was Active. For the same compound, the dissociation constant Kd on GTP-binding protein Rheb [2] stood at 1.8 mM; on GTPase KRas it was 0.6 mM. On GTP-binding protein Rheb [3], the inhibition entry is “inactive”.
As for `Oc1ccc(-c2ccc(O)cc2)cc1`, the Kd at GTP-binding protein Rheb [2] was determined as 1.5 mM. Further, the inhibition result on GTPase KRas was “inactive”. Further, the outcome in the experiment with HeLa [4] was Active. In addition, the inhibition result at GTP-binding protein Rheb [3] is “Active”.

As usually defined, the Kd is a measure of binding affinity in units of concentration. Lower therefore signals higher affinity.
